Patent US10457707B2, “Substituted urea depsipeptide analogs as activators of the CLPP endopeptidase” (priority 2015, dated 2019)
In brackets after ≈: the same amount, converted by molar mass. Like-named read-outs stand apart in the source and are kept apart here. *1 amine or outer side, *2 acyl side, *3 side chain or, on linkers, in order; H or OH if unused. Where a SMILES comes first, the peptide text is derived from it. Bridges are numbered along the chain shown (N, C = ends). [ ]: non-standard residue; d: D form. The star is where a group is joined. Phe(3,5-F2) = N[C@@H](Cc1cc(F)cc(F)c1)C(=O)O; NH(4-OCF3-phenyl) = FC(F)(F)Oc1ccc(N*)cc1; Morpholine(3S-CO) = O=C(O)[C@@H]1COCCN1; Pro(4S-Me) = C[C@@H]1CN[C@H](C(=O)O)C1; NH(4-Cl-2-F-phenyl) = Fc1cc(Cl)ccc1N*; Pro(4R-Me) = C[C@H]1CN[C@H](C(=O)O)C1; Hyp = O=C(O)[C@@H]1C[C@@H](O)CN1; NMeT = CN[C@H](C(=O)O)[C@@H](C)O; Heptenoyl(2E) = CCCC/C=C/C(=O)*; NH(4-Me-phenyl) = Cc1ccc(N*)cc1; aThr = C[C@H](O)[C@H](N)C(=O)O; Pip = O=C(O)[C@@H]1CCCCN1; X6 = Cc1cc(C)cc(N*)c1; CO = O=C([*:1])[*:2]; X7 = CC/C=C/C(=O)*

How the values were obtained:
[1] = system: Streptococcus pneumoniae, R6; test: Minimal inhibitory concentration assay; type: cell-based; details: read-out: Minimal Inhibitory Concentrations S. pneumoniae R6
Outline: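 Microbroth dilution with two-fold serial compound dilutions in broth, incubated aerobically overnight at 37° C. MIC taken as the lowest concentration preventing bacterial growth.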

Sa-ClpP = molecular target: T1, Sa-ClpP (Staphylococcus aureus, UniProt Q2G036); test: ADEP displacement fluorescence polarization assay (FP probe ADEP 2591); type: binding
T1 construct: made in house; host or cells: E. coli BL21(DE3)
T1 sequence (Q2G036 1-195): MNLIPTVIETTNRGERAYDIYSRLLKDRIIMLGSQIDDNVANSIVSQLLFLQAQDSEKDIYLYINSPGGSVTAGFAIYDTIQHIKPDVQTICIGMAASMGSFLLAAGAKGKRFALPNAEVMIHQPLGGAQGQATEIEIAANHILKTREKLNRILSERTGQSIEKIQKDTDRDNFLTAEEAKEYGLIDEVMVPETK
Protocol: A fluorescence polarization (FP) assay was used to determine the activity of the disclosed compounds in displacing an ADEP analogue from ClpP. Briefly, the assay was performed in black 384 well, flat bottom, low volume plates (Greiner Bio-One, Monroe, N.C., catalog #784076). 20 μL of a pre-equilibrated (1 hr, room temperature) master mix (15 μM Sa-ClpP, 2% DMSO (v/v) and 50 nM FP probe in Tris*HCl, pH 8.0)) was pipetted into each well using a Well-Mate (Thermo Scientific, Waltham, Mass.). Sa-ClpP was prepared as described above for the ClpP activation assay. The FP probe was ADEP 2591 (structure shown above). The ADEP 2591 comprises a TAMRA fluorophore linked to a core based on modified ADEP 2378 via a short alkyl linker. Using pin transfer, approximately 0.4 μL (2% v/v DMSO) of each compound or control was added per well. After addition of compounds and controls, plates were allowed to incubate for an additional 120 minutes at room temperature. All assays were performed in triplicate. Polarization was monitored using an EnVision Multilabel reader (Perkin-Elmer, Waltham, Mass.) by exciting the FP probe at 530±25 nm, and monitoring fluorescence intensity of both parallel and perpendicular polarized light at 579±25 nm. Readout was in millipolarization units (mP).
Data collected was normalized to values obtained from positive (200 μM ADEP 2378) or negative (DMSO) controls. Curves were fit with non-linear regression using the equation “log [inhibitor] vs. Response-variable slope (four parameters)-symmetrical” in the program Prism 6 (GraphPad Software, La Jolla, Calif. USA, www.graphpad.com). The structures for ADEP 2378 and ADEP 2591 are shown above. ADEP 2378 is (E)-N—((S)-1-(((2R,6S,8aS,14aS,20S,23aS)-2,6-dimethyl-5,8,14,19,23-pentaoxooctadecahydro-1H,5H,14H,19H-pyrido[2,1-i]dipyrrolo[2,1-c:2′,1′-1][1]oxa[4,7,10,13]tetraazacyclohexadecin-20-yl)amino)-1-oxo-3-phenylpropan-2-yl)pent-2-enamide. ADEP 2591 is 5-(3-(3-((6S,9S,11aS,17S,20aS)-6,10-dimethyl-5,8,11,16,20-pentaoxo-17-((S)-2-((E)-pent-2-enamido)-3-phenylpropanamido)hexadecahydro-1H,5H,16H-dipyrrolo[2,1-c:2′,1′-1][1]oxa[4,7,10,13]tetraazacyclohexadecin-9-yl)propyl)thioureido)-2-(6-(dimethylamino)-3-(dimethyliminio)-3H-xanthen-9-yl)benzoate.

[2] = system: Staphylococcus aureus, USA 300; test: Minimal inhibitory concentration assay; type: cell-based; details: USA300, read-out: Minimal Inhibitory Concentrations S. aureus USA 300
Outline: (§1)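 Visual read-out; MIC is the lowest drug concentration with no bacterial growth after overnight aerobic incubation at 37 °C. Compound was tested in two-fold dilutions starting at 200 μM final, with an inoculum of approximately 10^5 cfu/mL, following CLSI microdilution guidance.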

[3] = system: Staphylococcus aureus, USA 300 wherein ClpP is inactivated; test: Minimal inhibitory concentration assay; type: cell-based
Outline: as §1

[4] = system: Enterococcus faecalis, ATCC 33186; test: Minimal inhibitory concentration assay (microbroth dilution); type: cell-based
Outline: as §1

[5] = Enterococcus faecalis, ATCC33186; read-out: Minimal Inhibitory Concentrations E. faecalis ATCC 33186
[6] = Enterococcus faecalis, ATCC33186, read-out: Minimal Inhibitory Concentrations E. faecalis ATCC 33186

Structure (SMILES)	MIC [1] [µM]	IC50 (Sa-ClpP) [µM]	MIC [2] [µM]	Minimal Inhibitory Concentrations S. aureus USA 300 ΔClpP [3] [µM]	MIC [4, 5] [µM]	MIC [4, 6] [µM]	IC50 (Sa-ClpP; displacement of FP probe ADEP 2591 from Sa-ClpP, read-out: ADEP Displacement IC50) [µM]
C[C@@H]1C[C@H]2C(=O)OC[C@H](NC(=O)[C@H](Cc3cc(F)cc(F)c3)NC(=O)Nc3ccc4c(c3)OCO4)C(=O)N3CCC[C@H]3C(=O)N3CCCC[C@H]3C(=O)N[C@@H](C)C(=O)N2C1 [Compound 195, (S)-2-(3-(benzo[d][1,3]dioxol-5-yl)ureido)-3-(3,5-difluorophenyl)-N-((2R,6S,8aS,14aS,20S,23aS)-2,6-dimethyl-5,8,14,19,23-pentaoxooctadecahydro-1H,5H,14H,19H-pyrido[2,1-i]dipyrrolo[2,1-c:2′,1′-l][1]oxa[4,7,10,13]tetraazacyclohexadecin-20-yl)propanamide]	0.1 (≈ 0.0824 µg/mL)	5.8 ± 0.2	–	–	–	–	–
CCCC/C=C/C(=O)N[C@@H](Cc1cc(F)cc(F)c1)C(=O)N[C@@H]1C(=O)N2C[C@H](O)C[C@H]2C(=O)N2CCOC[C@H]2C(=O)N[C@@H](C)C(=O)N2C[C@H](C)C[C@H]2C(=O)O[C@H]1C [Compound 309, (E)-N—((S)-3-(3,5-difluorophenyl)-1-(((6aS,8R,12S,13S,15aS,17R,21S,23aS)-8-hydroxy-13,17,21-trimethyl-6,11,15,20,23-pentaoxooctadecahydro-6H,11H,15H-[1,4]oxazino[3,4-i]dipyrrolo[2,1-c:2′,1′-l][1]oxa[4,7,10,13]tetraazacyclohexadecin-12-yl)amino)-1-oxopropan-2-yl)hept-2-enamide] ({Heptenoyl(2E)}-[Phe(3,5-F2)][aThr][Hyp][Morpholine(3S-CO)]A[Pro(4R-Me)]; ester 2-C)	–	7.2 ± 0.4	0.625 (≈ 0.502 µg/mL)	>20	0.039 (≈ 0.0313 µg/mL)	–	–
CC/C=C/C(=O)N[C@@H](Cc1cc(F)cc(F)c1)C(=O)N[C@@H]1C(=O)N2C[C@H](O)C[C@H]2C(=O)N2CCCC[C@H]2C(=O)N[C@@H](C)C(=O)N2C[C@H](C)C[C@H]2C(=O)O[C@H]1C [Compound 300] (X7-[Phe(3,5-F2)][aThr][Hyp][Pip]A[Pro(4R-Me)]; ester 2-C)	–	5.94 ± 0.3	2.5 (≈ 1.93 µg/mL)	>20	–	0.039 (≈ 0.0301 µg/mL)	–
CCCC/C=C/C(=O)N[C@@H](Cc1cc(F)cc(F)c1)C(=O)N[C@@H]1C(=O)N2CCC[C@H]2C(=O)N(C)[C@@H]([C@@H](C)O)C(=O)N[C@@H](C)C(=O)N2C[C@H](C)C[C@H]2C(=O)O[C@H]1C [Compound 308, (E)-N—((S)-3-(3,5-difluorophenyl)-1-(((2R,6S,9S,11aS,17S,18S,20aS)-9-((R)-1-hydroxyethyl)-2,6,10,18-tetramethyl-5,8,11,16,20-pentaoxohexadecahydro-1H,5H,16H-dipyrrolo[2,1-c:2′,1′-l][1]oxa[4,7,10,13]tetraazacyclohexadecin-17-yl)amino)-1-oxopropan-2-yl)hept-2-enamide] ({Heptenoyl(2E)}-[Phe(3,5-F2)][aThr]P[NMeT]A[Pro(4R-Me)]; ester 2-C)	–	4.4 ± 0.3	0.039 (≈ 0.0308 µg/mL)	>20	0.039 (≈ 0.0308 µg/mL)	–	–
Cc1ccc(NC(=O)N[C@@H](Cc2cc(F)cc(F)c2)C(=O)N[C@H]2COC(=O)[C@@H]3C[C@@H](C)CN3C(=O)[C@H](C)NC(=O)[C@@H]3COCCN3C(=O)[C@@H]3C[C@@H](O)CN3C2=O)cc1 [Compound 317, (S)-3-(3,5-difluorophenyl)-N-((6aS,8R,12S,15aS,17R,21S,23aS)-8-hydroxy-17,21-dimethyl-6,11,15,20,23-pentaoxooctadecahydro-6H,11H,15H-[1,4]oxazino[3,4-i]dipyrrolo[2,1-c:2′,1′-l][1]oxa[4,7,10,13]tetraazacyclohexadecin-12-yl)-2-(3-(p-tolyl)ureido)propanamide] ({NH(4-Me-phenyl)-CO}-[Phe(3,5-F2)]S[Hyp][Morpholine(3S-CO)]A[Pro(4R-Me)]; ester 2-C)	–	7.25 ± 0.5	12.5 (≈ 10.1 µg/mL)	12.5	–	0.313 (≈ 0.254 µg/mL)	–
C[C@@H]1C[C@H]2C(=O)O[C@@H](C)[C@H](NC(=O)[C@H](Cc3cc(F)cc(F)c3)NC(=O)Nc3ccc(Cl)cc3F)C(=O)N3C[C@H](O)C[C@H]3C(=O)N3CCCC[C@H]3C(=O)N[C@@H](C)C(=O)N2C1 [Compound 329, (S)-2-(3-(4-chloro-2-fluorophenyl)ureido)-3-(3,5-difluorophenyl)-N-((2R,6S,8aS,14aS,16R,20S,21S,23aS)-16-hydroxy-2,6,21-trimethyl-5,8,14,19,23-pentaoxooctadecahydro-1H,5H,14H,19H-pyrido[2,1-i]dipyrrolo[2,1-c:2′,1′-l][1]oxa[4,7,10,13]tetraazacyclo-hexadecin-20-yl)propanamide] ({NH(4-Cl-2-F-phenyl)-CO}-[Phe(3,5-F2)][aThr][Hyp][Pip]A[Pro(4R-Me)]; ester 2-C)	–	7.32 ± 0.4	0.039 (≈ 0.0336 µg/mL)	50	0.039 (≈ 0.0336 µg/mL)	–	–
C[C@H]1C[C@H]2C(=O)O[C@@H](C)[C@H](NC(=O)[C@H](Cc3cc(F)cc(F)c3)NC(=O)Nc3ccc(OC(F)(F)F)cc3)C(=O)N3CCC[C@H]3C(=O)N3CCOC[C@H]3C(=O)N[C@@H](C)C(=O)N2C1 [Compound 201, (S)-3-(3,5-difluorophenyl)-2-(3-(4-(trifluoromethoxy)phenyl)ureido)-N-((6aS,12S,13S,15aS,17S,21S,23aS)-13,17,21-trimethyl-6,11,15,20,23-pentaoxooctadecahydro-6H,11H,15H-[1,4]oxazino[3,4-i]dipyrrolo[2,1-c:2′,1′-l][1]oxa[4,7,10,13]tetraazacyclohexadecin-12-yl)propanamide] ({NH(4-OCF3-phenyl)-CO}-[Phe(3,5-F2)][aThr]P[Morpholine(3S-CO)]A[Pro(4S-Me)]; ester 2-C)	–	–	0.049 (≈ 0.0431 µg/mL)	50	0.098 (≈ 0.0862 µg/mL)	–	6.1 ± 0.4
Cc1cc(C)cc(NC(=O)N[C@@H](Cc2cc(F)cc(F)c2)C(=O)N[C@@H]2C(=O)N3CCC[C@H]3C(=O)N3CCCC[C@H]3C(=O)N[C@@H](C)C(=O)N3C[C@H](C)C[C@H]3C(=O)O[C@H]2C)c1 [Compound 304, (S)-3-(3,5-difluorophenyl)-2-(3-(3,5-dimethylphenyl)ureido)-N-((2R,6S,8aS,14aS,20S,21S,23aS)-2,6,21-trimethyl-5,8,14,19,23-pentaoxooctadecahydro-1H,5H,14H,19H-pyrido[2,1-i]dipyrrolo[2,1-c:2′,1′-l][1]oxa[4,7,10,13]tetraazacyclo-hexadecin-20-yl)propanamide] ({X6-CO}-[Phe(3,5-F2)][aThr]P[Pip]A[Pro(4R-Me)]; ester 2-C)	–	6.52 ± 0.3	0.079 (≈ 0.0649 µg/mL)	>20	0.029 (≈ 0.0238 µg/mL)	–	–
CCCC/C=C/C(=O)N[C@@H](Cc1cc(F)cc(F)c1)C(=O)N[C@@H]1C(=O)N2C[C@H](O)C[C@H]2C(=O)N2CCCC[C@H]2C(=O)N[C@@H](C)C(=O)N2C[C@H](C)C[C@H]2C(=O)O[C@H]1C [Compound 301, (E)-N—((S)-3-(3,5-difluorophenyl)-1-(((2R,6S,8aS,14aS,16R,20S,21S,23aS)-16-hydroxy-2,6,21-trimethyl-5,8,14,19,23-pentaoxooctadecahydro-1H,5H,14H,19H-pyrido[2,1-i]dipyrrolo[2,1-c:2′,1′-l][1]oxa[4,7,10,13]tetraazacyclohexadecin-20-yl)amino)-1-oxopropan-2-yl)hept-2-enamide] ({Heptenoyl(2E)}-[Phe(3,5-F2)][aThr][Hyp][Pip]A[Pro(4R-Me)]; ester 2-C)	–	7.07 ± 0.3	0.079 (≈ 0.0633 µg/mL)	>20	–	< 0.0098	–
